Results: patent publication US9279811B2, “Methods and kits that identify tumors responsive to Src inhibitors” (OREGON HEALTH & SCIENCE UNIVERSITY, priority 2011, dated 2016)

Assays:
Format in all cases: cell-based, human
SN12C VHL WT cells = assay: Cell cycle analysis by flow cytometry (PI staining), SN12C VHL WT
Procedure: (§1) Transduction of empty retroviral vector (pBabe) served as a negative control.
(§2) Flow Cytometry: Cells were plated at a density such that they were no more than 70% confluent on the day of analysis. […] For propidium iodide staining, cells were trypsinized, collected by centrifugation and washed in PBS prior to fixing in 70% v/v ethanol. Ethanol was removed by washing in PBS. Cells were incubated with 100 μg/ml RNase A (Sigma) for 5 minutes and stained with 50 μg/ml PI for 30 minutes. […] Cells were stained with fluorescein isothiocyanate (FITC)-conjugated anti-BrdU antibodies (BD Biosciences) according to the manufacturer's instructions. Following multiple washes in blocking solution and PBS, cells were stained with 5 μg/ml PI for 30 minutes. The PI or BrdU/PI-stained samples were analyzed by an LSR® FACS (Becton Dickinson) and the cell cycle profile was analyzed with the FlowJo® software (Tree Star Inc.). Phosphoprotein flow cytometry analysis was performed as previously described in Shah N P et al, Cell 14, 485 (2008), incorporated by reference herein.

SN12C shVHL cells = assay: Cell cycle analysis by flow cytometry (PI staining), SN12C shVHL
Procedure: as §1, §2

ACHN VHL WT = assay: Cell cycle analysis of HIF-α mutant cell lines, ACHN, VHL WT; conditions: 48 hours post treatment
Procedure: as §1, §2

SN12C VHL WT = assay: Cell cycle analysis of HIF-α mutant cell lines, SN12C, VHL WT; conditions: 48 hours post treatment
Procedure: as §1, §2

ACHN shVHL cells = assay: Cell cycle analysis by flow cytometry (PI staining), ACHN shVHL
Procedure: as §1, §2

ACHN VHL WT cells = assay: Cell cycle analysis by flow cytometry (PI staining), ACHN VHL WT
Procedure: as §1, §2

[1] = tested on: ACHN cells expressing constitutively stable HIF-2α-P405A, P853A; assay: Cell cycle analysis of HIF-α mutant cell lines, ACHN HIF-2α; conditions: 48 hours post treatment
Procedure: as §1, §2

[2] = tested on: SN12C cells expressing constitutively stable HIF-2α-P405A, P853A; assay: Cell cycle analysis of HIF-α mutant cell lines, SN12C HIF-2α; conditions: 48 hours post treatment
Procedure: as §1, §2

SN12C-shVHL cells = assay: Cell proliferation assay (cell count), SN12C-shVHL
From the text: (§3) Cells were split to sustain log phase growth.

VHL-WT SN12C cells = assay: Cell proliferation assay (cell count), SN12C
From the text: as §3

Cc1nc(Nc2ncc(C(=O)Nc3c(C)cccc3Cl)s2)cc(N2CCN(CCO)CC2)n1 [dasatinib]
Cell population (%) in G1 (SN12C VHL WT cells; dasatinib 25 nM): 59.5%
Cell population (%) in G2/M (SN12C VHL WT cells; dasatinib 25 nM): 15.0%
Cell population (%) in S (SN12C VHL WT cells; dasatinib 25 nM): 23.9%
Cell population (%) in G1 (SN12C VHL WT cells; dasatinib 50 nM): 63.6%
Cell population (%) in G2/M (SN12C VHL WT cells; dasatinib 50 nM): 11.7%
Cell population (%) in S (SN12C VHL WT cells; dasatinib 50 nM): 22.8%
Cell population (%) in G1 (SN12C VHL WT cells; dasatinib 100 nM): 70.0%
Cell population (%) in G2/M (SN12C VHL WT cells; dasatinib 100 nM): 11.7%
Cell population (%) in S (SN12C VHL WT cells; dasatinib 100 nM): 16.3%
Cell population (%) in G1 (SN12C shVHL cells; dasatinib 25 nM): 45.2%
Cell population (%) in G2/M (SN12C shVHL cells; dasatinib 25 nM): 17.5%
Cell population (%) in S (SN12C shVHL cells; dasatinib 25 nM): 36.9%
Cell population (%) in G1 (SN12C shVHL cells; dasatinib 50 nM): 45.4%
Cell population (%) in G2/M (SN12C shVHL cells; dasatinib 50 nM): 15.7%
Cell population (%) in S (SN12C shVHL cells; dasatinib 50 nM): 38.5%
Cell population (%) in G1 (SN12C shVHL cells; dasatinib 100 nM): 46.1%
Cell population (%) in G2/M (SN12C shVHL cells; dasatinib 100 nM): 18.5%
Cell population (%) in S (SN12C shVHL cells; dasatinib 100 nM): 35.3%
Cell population (%) in G1 (ACHN VHL WT; dasatinib 25 nM): 59.2%
Cell population (%) in G2/M (ACHN VHL WT; dasatinib 25 nM): 17.1%
Cell population (%) in S (ACHN VHL WT; dasatinib 25 nM): 21.6%
Cell population (%) in G1 (ACHN VHL WT; dasatinib 50 nM): 56.4%
Cell population (%) in G2/M (ACHN VHL WT; dasatinib 50 nM): 16.0%
Cell population (%) in S (ACHN VHL WT; dasatinib 50 nM): 25.1%
Cell population (%) in G1 (ACHN VHL WT; dasatinib 100 nM): 60.1%
Cell population (%) in G2/M (ACHN VHL WT; dasatinib 100 nM): 22.0%
Cell population (%) in S (ACHN VHL WT; dasatinib 100 nM): 17.6%
Cell population (%) in G1 (SN12C VHL WT; dasatinib 25 nM): 60.1%
Cell population (%) in G2/M (SN12C VHL WT; dasatinib 25 nM): 13.3%
Cell population (%) in S (SN12C VHL WT; dasatinib 25 nM): 25.1%
Cell population (%) in G1 (SN12C VHL WT; dasatinib 50 nM): 59.2%
Cell population (%) in G2/M (SN12C VHL WT; dasatinib 50 nM): 11.4%
Cell population (%) in S (SN12C VHL WT; dasatinib 50 nM): 27.6%
Cell population (%) in G1 (SN12C VHL WT; dasatinib 100 nM): 60.4%
Cell population (%) in G2/M (SN12C VHL WT; dasatinib 100 nM): 11.1%
Cell population (%) in S (SN12C VHL WT; dasatinib 100 nM): 26.5%
Cell population (%) in G1 (ACHN shVHL cells; dasatinib 25 nM): 50.2%
Cell population (%) in G2/M (ACHN shVHL cells; dasatinib 25 nM): 9.8%
Cell population (%) in S (ACHN shVHL cells; dasatinib 25 nM): 37.4%
Cell population (%) in G1 (ACHN shVHL cells; dasatinib 50 nM): 47.6%
Cell population (%) in G2/M (ACHN shVHL cells; dasatinib 50 nM): 14.2%
Cell population (%) in S (ACHN shVHL cells; dasatinib 50 nM): 36.7%
Cell population (%) in G1 (ACHN shVHL cells; dasatinib 100 nM): 46.1%
Cell population (%) in G2/M (ACHN shVHL cells; dasatinib 100 nM): 10.9%
Cell population (%) in S (ACHN shVHL cells; dasatinib 100 nM): 40.8%
Cell population (%) in G1 (ACHN VHL WT cells; dasatinib 25 nM): 59.7%
Cell population (%) in G2/M (ACHN VHL WT cells; dasatinib 25 nM): 12.6%
Cell population (%) in S (ACHN VHL WT cells; dasatinib 25 nM): 25.8%
Cell population (%) in G1 (ACHN VHL WT cells; dasatinib 50 nM): 62.1%
Cell population (%) in G2/M (ACHN VHL WT cells; dasatinib 50 nM): 16.0%
Cell population (%) in S (ACHN VHL WT cells; dasatinib 50 nM): 17.6%
Cell population (%) in G1 (ACHN VHL WT cells; dasatinib 100 nM): 64.5%
Cell population (%) in G2/M (ACHN VHL WT cells; dasatinib 100 nM): 14.9%
Cell population (%) in S (ACHN VHL WT cells; dasatinib 100 nM): 15.7%
Cell population (%) in G1 ([1]; dasatinib 25 nM): 53.9%
Cell population (%) in G2/M ([1]; dasatinib 25 nM): 16.1%
Cell population (%) in S ([1]; dasatinib 25 nM): 27.7%
Cell population (%) in G1 ([1]; dasatinib 50 nM): 51.9%
Cell population (%) in G2/M ([1]; dasatinib 50 nM): 19.3%
Cell population (%) in S ([1]; dasatinib 50 nM): 27.0%
Cell population (%) in G1 ([1]; dasatinib 100 nM): 55.3%
Cell population (%) in G2/M ([1]; dasatinib 100 nM): 17.7%
Cell population (%) in S ([1]; dasatinib 100 nM): 24.2%
Cell population (%) in G1 ([2]; dasatinib 25 nM): 54.8%
Cell population (%) in G2/M ([2]; dasatinib 25 nM): 20.6%
Cell population (%) in S ([2]; dasatinib 25 nM): 23.6%
Cell population (%) in G1 ([2]; dasatinib 50 nM): 55.7%
Cell population (%) in G2/M ([2]; dasatinib 50 nM): 22.1%
Cell population (%) in S ([2]; dasatinib 50 nM): 21.4%
Cell population (%) in G1 ([2]; dasatinib 100 nM): 49.7%
Cell population (%) in G2/M ([2]; dasatinib 100 nM): 21.3%
Cell population (%) in S ([2]; dasatinib 100 nM): 27.8%

Cc1ccc(NC(=O)c2ccc(CN3CCN(C)CC3)cc2)cc1Nc1nccc(-c2cccnc2)n1 [imatinib]
effect on proliferation (SN12C-shVHL cells): had no effect on the proliferation
effect on proliferation (VHL-WT SN12C cells): had no effect on the proliferation
